Results from patent publication US20070293580A1, “Methods for Buccal, Lingual or Sublingual Dosing Regimens of Epinephrine for the Treatment of Allergic Emergencies” (priority 2006, published 2007).

Experiments:
symptoms of anaphylaxis [1] = conditions: 30 mg, then 45 mg at approximately 5 minute intervals without amelioration, within about five minutes after the third dose
Method: A patient experiencing an allergic emergency initiates treatment at the onset of shortness of breath by self administering 30 mg of epinephrine free base in a lingual dosage form. After approximately 5 minutes pass without amelioration of the symptoms of anaphylaxis, the patient self administers a second lingual dosage form comprising 30 mg of epinephrine free base. After another approximately 5 minutes pass without amelioration of the symptoms of anaphylaxis, the patient self administers a third lingual dosage form comprising 45 mg of epinephrine free base.

symptoms of anaphylaxis [2] = conditions: 40 mg
Method: (§1) A patient experiencing an allergic emergency initiates treatment at the onset of shortness of breath by self administering 40 mg of epinephrine free base in a buccal dosage form.
as §1

CNC[C@H](O)c1ccc(O)c(O)c1 [epinephrine free base, epinephrine]
symptoms of anaphylaxis are relieved: patient's symptoms of anaphylaxis after the third lingual dose (symptoms of anaphylaxis [1]) | patient's symptoms of anaphylaxis after the third buccal dose (symptoms of anaphylaxis [2]; then 60 mg at approximately 5 minute intervals without amelioration, within about five minutes after the third dose) | patient's symptoms of anaphylaxis after the second buccal dose (symptoms of anaphylaxis [2]; then second 40 mg after approximately 5 minutes without amelioration, within about five minutes after the second dose)
